Patent US20230071765A1, “COMPOSITIONS HAVING THIOREDOXIN ACTIVITY AND RELATED METHODS” (ORPRO THERAPEUTICS, INC., priority 2020, published 2023)
Where “and” joins values, the source holds several entries; their conditions need not be identical. Equal values may be shown once.

Legend:
[1] = tested on: CF patient sputum on wild type rat trachea; assay: CF sputum transport ex vivo on excised rat trachea (μOCT); set-up: species or system human sputum; conditions: sputum treated 2 hrs; ORP100S 3 mM, DTT 1.6 mM, DNase 10 or 25 μg/ml; PBS 0.97±0.17
Procedure: To determine the effect of ORP100S on CF sputum transportability, sputum specimens spontaneously expectorated from 4 CF patients hospitalized for pulmonary exacerbation were collected and stored at 4° C. before being divided into 200 μL aliquots and treated with ORP100S (3 mM), PBS, DTT (1.6 mM), or DNase (10 or 25 μg/ml) on the day of or day following collection. Upon treatment, sputum aliquots were placed in a 37° C. water bath for 2 hrs and then applied (3 μl per sample) for μOCT imaging to the distal end of trachea excised from adult non-CF rats. Trachea were washed 2× with 500 μl of PBS before sputum addition. […]
One-micron resolution spectral domain μOCT was used to obtain measurements of mucociliary transport (MCT) rate and ciliary beat frequency (CBF) in HBE monolayers and of MCT rate of sputum ex vivo. […] Images were captured, and MCT rate and CBF calculated, as described in the preceding references.
The effect of ORP100S on mucus clearance using intact rat trachea, which include the complexities of the airway surface such as gland expression of a fully differentiated mucosal surface, was further evaluated. […] MCT was measured by projecting a cross-sectional line through the mucus through time, with the slope of the particle trajectories indicating velocity. […]

mucins of 4% HBE mucus = assay: mucin molecular weight by GPC-MALLS; format: biochemical, human; conditions: 1 mM, 1 hr at 37° C.; from 180 MDa
Description: Mucus Preparation: Aseptic mucus was harvested from over 100 individual HBE cultures from 20 different CF donors and prepared to four weight-percent (4%) solids, a concentration that typifies chronic obstructive pulmonary disease (COPD) and mild CF (Hill, D. B. et al., 2014, A biophysical basis for mucus solids concentration as a candidate biomarker for airways disease, PloS one 9, e87681; Anderson, W. H. et al., 2015, The relationship of mucus concentration (hydration) to mucus osmotic pressure and transport in chronic bronchitis., Am J Resp Crit Care Med 192: 182-90). […] Creep recovery experiments were performed in which a known stress (between 0.05 and ˜100 Pa) was applied to treated or control mucus for 10 seconds, and the rheological recovery of the fluid was recorded for an additional 50 seconds. […] From the measured parameters the viscosity and elasticity of the fluid were determined as a function of applied stress. […] Mucin molecular weight determination: Molecular weight reduction following test article treatment was determined using a combination of gel-permeation chromatography with multi-angle laser light scattering on a Wyatt Heleos MALLS system. […] Mucin MW was determined by fitting a Berry model to light scattering from 11 different angles using Wyatt Astra software. […]

[2] = tested on: primary HBE cells from CF donors homozygous for F508del; assay: μOCT of MCT rate and CBF in CF primary HBE cells; format: cell-based, human; conditions: 3 hrs post-treatment; ORP100S 1-3 mM, DTT 1.6 mM; PBS 7.30±2.9; mean±SE
Description: (§1) Primary human bronchial epithelial (HBE) cells were derived from lung explants from healthy failed donors and CF patients homozygous for F508del CFTR. […]
(§2) One-micron resolution spectral domain μOCT was used to obtain measurements of mucociliary transport (MCT) rate and ciliary beat frequency (CBF) in HBE monolayers and of MCT rate of sputum ex vivo. This first-in-kind, high-speed (40 frames per second, 512 lines per frame) microscopic reflectance imaging modality enables simultaneous anatomic imaging in cell cultures and intact tissues that readily distinguishes the properties of CF compared to normal epithelia (Liu L, Chu K K, Houser G H, Diephuis B J, Li Y, Wilsterman E J, Shastry S, Dierksen G, Birket S E, Mazur M, et al., 2013, Method for quantitative study of airway functional microanatomy using micro-optical coherence tomography, PLoS One 8(1):e54473; Tuggle K L, Birket S E, Cui X, Hong J, Warren J, Reid L, Chambers A, Ji D, Gamber K, Chu K K, et al., 2014, Characterization of defects in ion transport and tissue development in Cystic Fibrosis Transmembrane Conductance Regulator (CFTR)-knockout rats. […] Images were captured, and MCT rate and CBF calculated, as described in the preceding references.

[3] = tested on: primary HBE cells from healthy non-CF donors; assay: μOCT of MCT rate and CBF in non-CF primary HBE cells; format: cell-based, human; conditions: 3 hrs post-treatment; ORP100S 1-3 mM, DTT 1.6 mM; PBS 0.05±0.007; mean±SE
Description: as §1, §2

[4] = thiol pKa; thioredoxin: active site Cys32; cited from earlier work
human insulin = target: T1, human insulin (Homo sapiens, UniProt P01308); assay: RP-HPLC insulin reduction assay (conversion of insulin heterodimer); format: biochemical
T1 construct: The two chains of human insulin have a total of six Cys residues which form three disulfide bonds in its mature structure
Procedure: Functional assays 1. Reduction state of ORP100S was quantified using DTNB which reacts with free SH groups resulting in a yellow color change at 412 nm. Fifty microliters of 2.5 mM rhTrx was added to a 96-well plate, followed by 175 microliters of sample buffer and 25 microliters of 6 mM DTNB. After reactions were initiated by the addition of DTNB, change in kinetic absorbance at 412 nm due to DTNB reduction was monitored spectrophotometrically at 30° C. ORP100S concentration was determined by A280 (Nanodrop) using the extinction coefficient of human Trx-1 (7,000). The actual concentrations of free sulfhydryl groups were calculated based on the absorbance at 412 nm and the extinction coefficient of DTNB (14,150) in order to determine the reduction state as percentage of free sulfhydryl. […] 2. Percent of free monomer ORP100S in solution was determined using SEC. Samples were analyzed on a BioBasic S-300 250×4.6 column (Thermo Scientific) run on an Agilent 1100 HPLC system. […] The flow rate was 0.35 mL/min and absorbance was monitored at 280 nm. […] The ORP100S monomer percentage was determined by integration of the area under the peak of the monomeric fraction divided by the total area under the curve of the chromatogram. […] Disulfide bond reduction activity of ORP100S was quantified by assaying the reduction state of a small protein (human insulin) which in its heterodimeric form contains two intermolecular and one intramolecular disulfide, all three of which are known to be suitable thioredoxin substrates. Insulin reduction has classically been used to quantify thioredoxin activity by absorbance change following addition of NADPH and TrxR (Holmgren A., 1979, Thioredoxin catalyzes the reduction of insulin disulfides by dithiothreitol and dihydrolipoamide, J Biol Chem 254:9627-32). […] Relative activity at each time point was determined from changes in the area under the insulin heterodimer peak following separation over RP-HPLC (Agilent 1100) using an Intrada WP-RP 50×3 (Imtakt) column. […] The flow rate was 0.2 mL/min and absorbance was measured at 280 nm. […]

T1 sequence (P01308 25-54 limits assumed): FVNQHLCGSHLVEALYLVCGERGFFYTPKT
T1 sequence (P01308 90-110 limits assumed): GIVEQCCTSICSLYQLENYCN

O[C@H](CS)[C@H](O)CS (racemic) [DTT, dithiothreitol, reference compound]
MCT rate of treated sputum [1]: 2.31±0.34 mm/min | molecular weight of mucins (mucins of 4% HBE mucus): 210 MDa | MCT rate [2]: 33.33±12.9 mm/min | MCT rate [3]: 1.41±0.1 mm/min

N[C@@H](CCC(=O)N[C@@H](CS)C(=O)NCC(=O)O)C(=O)O [GSH, glutathione]
pKa [4]: 9.1

O=S(=O)(O)CCS [Mesna, 2-mercaptoethane sulfonate Na]
pKa [4]: 9.2

CC(=O)N[C@@H](CS)C(=O)O [NAC, N-acetyl cysteine, reference compound]
insulin reduction (human insulin; 1.25 mM, pH 6 or 8, 60 min): inactive | insulin reduction (human insulin; 12.5 mM, pH 6, 60 min): not at pH 6 | insulin reduction (human insulin; 12.5 mM, pH 8, 60 min): able to reduce insulin

NCCS [cysteamine]
pKa [4]: 8.3 and 8.5
